System: patients with cGVHD
Experimental: All responses were assessed by the investigators.
Reported Adverse Events. […] All-cause mortality data collected during the study were assessed for all enrolled participants. Disease progression related death was not reported as AE.
Number of Participants With Treatment-emergent Adverse Events (TEAEs), and Treatment-emergent Serious Adverse Events (TESAEs). […] TEAEs included both SAEs and non-SAEs. […] Analysis was performed on safety population which included all participants who received at least 1 dose of study medication.

CC(C)NC(=O)COc1cccc(-c2nc(Nc3ccc4[nH]ncc4c3)c3ccccc3n2)c1 [Belumosudil, 2-{3-[4-(1H-indazol-5-ylamino)-2-quinazolinyl]phenoxy}-N-(propan-2-yl) acetamide]
Urinary retention: Affected/At Risk (%) (Cohort 2 200 mg BID): 1/16 (6.25%) | Urinary tract infection: # Events (Cohort 2 200 mg BID): 2 | Urinary tract infection: Affected/At Risk (%) (Cohort 2 200 mg BID): 2/16 (12.5%) | Urinary tract pain: # Events (Cohort 2 200 mg BID): 1 | Urinary tract pain: Affected/At Risk (%) (Cohort 2 200 mg BID): 1/16 (6.25%) | Urine output decreased: # Events (Cohort 2 200 mg BID): 1 | Urine output decreased: Affected/At Risk (%) (Cohort 2 200 mg BID): 1/16 (6.25%) | Vascular access complication: # Events (Cohort 2 200 mg BID): 1 | Vascular access complication: Affected/At Risk (%) (Cohort 2 200 mg BID): 1/16 (6.25%) | Vertigo: # Events (Cohort 2 200 mg BID): 0 | Vertigo: Affected/At Risk (%) (Cohort 2 200 mg BID): 0/16 (0%) | Vision blurred: # Events (Cohort 2 200 mg BID): 2 | Vision blurred: Affected/At Risk (%) (Cohort 2 200 mg BID): 2/16 (12.5%) | Vomiting: # Events (Cohort 2 200 mg BID): 3 | Vomiting: Affected/At Risk (%) (Cohort 2 200 mg BID): 3/16 (18.75%) | Weight decreased: # Events (Cohort 2 200 mg BID): 0 | Weight decreased: Affected/At Risk (%) (Cohort 2 200 mg BID): 0/16 (0%) | Weight increased: # Events (Cohort 2 200 mg BID): 2 | Weight increased: Affected/At Risk (%) (Cohort 2 200 mg BID): 1/16 (6.25%) | White blood cell count decreased: # Events (Cohort 2 200 mg BID): 0 | White blood cell count decreased: Affected/At Risk (%) (Cohort 2 200 mg BID): 0/16 (0%) | Abdominal distension: # Events (Cohort 3 400 mg QD): 1 | Abdominal distension: Affected/At Risk (%) (Cohort 3 400 mg QD): 1/21 (4.76%) | Abdominal pain upper: # Events (Cohort 3 400 mg QD): 0 | Abdominal pain upper: Affected/At Risk (%) (Cohort 3 400 mg QD): 0/21 (0%) | Abdominal pain: # Events (Cohort 3 400 mg QD): 6 | Abdominal pain: Affected/At Risk (%) (Cohort 3 400 mg QD): 4/21 (19.05%) | Actinic keratosis: # Events (Cohort 3 400 mg QD): 1 | Actinic keratosis: Affected/At Risk (%) (Cohort 3 400 mg QD): 1/21 (4.76%) | Acute kidney injury: # Events (Cohort 3 400 mg QD): 6 | Acute kidney injury: Affected/At Risk (%) (Cohort 3 400 mg QD): 2/21 (9.52%) | Acute respiratory distress syndrome: # Events (Cohort 3 400 mg QD): 0 | Acute respiratory distress syndrome: Affected/At Risk (%) (Cohort 3 400 mg QD): 0/21 (0%) | Adrenal insufficiency: # Events (Cohort 3 400 mg QD): 0 | Adrenal insufficiency: Affected/At Risk (%) (Cohort 3 400 mg QD): 0/21 (0%) | Alanine aminotransferase increased: # Events (Cohort 3 400 mg QD): 2 | Alanine aminotransferase increased: Affected/At Risk (%) (Cohort 3 400 mg QD): 2/21 (9.52%) | All grade ALT/AST increased, No. (%) (Cohort 3 400 mg QD): 2 (10) | All grade Cough, No. (%) (Cohort 3 400 mg QD): 7 (33) | All grade Diarrhea, No. (%) (Cohort 3 400 mg QD): 7 (33) | All grade Dyspnea, No. (%) (Cohort 3 400 mg QD): 7 (33) | All grade Fatigue, No. (%) (Cohort 3 400 mg QD): 9 (43) | All grade Headache, No. (%) (Cohort 3 400 mg QD): 6 (29) | All grade Hypertension, No. (%) (Cohort 3 400 mg QD): 4 (19) | All grade Nausea, No. (%) (Cohort 3 400 mg QD): 8 (38) | All grade Peripheral edema, No. (%) (Cohort 3 400 mg QD): 6 (29) | All grade URI, No. (%) (Cohort 3 400 mg QD): 7 (33) | All-Cause Mortality, % (Cohort 3 400 mg QD): (14.29%) | All-Cause Mortality, Affected/At Risk (Cohort 3 400 mg QD): 3/21 | Anaemia: # Events (Cohort 3 400 mg QD): 0 | Anaemia: Affected/At Risk (%) (Cohort 3 400 mg QD): 0/21 (0%) | Anal incontinence: # Events (Cohort 3 400 mg QD): 0 | Anal incontinence: Affected/At Risk (%) (Cohort 3 400 mg QD): 0/21 (0%) | Anxiety: # Events (Cohort 3 400 mg QD): 3 | Anxiety: Affected/At Risk (%) (Cohort 3 400 mg QD): 3/21 (14.29%) | Any AE, No. (%) (Cohort 3 400 mg QD): 16 (100) | Arthralgia: # Events (Cohort 3 400 mg QD): 6 | Arthralgia: Affected/At Risk (%) (Cohort 3 400 mg QD): 5/21 (23.81%) | Aspartate aminotransferase increased: # Events (Cohort 3 400 mg QD): 1 | Aspartate aminotransferase increased: Affected/At Risk (%) (Cohort 3 400 mg QD): 1/21 (4.76%) | Asthenia: # Events (Cohort 3 400 mg QD): 0 | Asthenia: Affected/At Risk (%) (Cohort 3 400 mg QD): 0/21 (0%) | Atelectasis: # Events (Cohort 3 400 mg QD): 0 | Atelectasis: Affected/At Risk (%) (Cohort 3 400 mg QD): 0/21 (0%) | Back pain: # Events (Cohort 3 400 mg QD): 1 | Back pain: Affected/At Risk (%) (Cohort 3 400 mg QD): 1/21 (4.76%) | Balance disorder: # Events (Cohort 3 400 mg QD): 0 | Balance disorder: Affected/At Risk (%) (Cohort 3 400 mg QD): 0/21 (0%) | Basal cell carcinoma: # Events (Cohort 3 400 mg QD): 0 | Basal cell carcinoma: Affected/At Risk (%) (Cohort 3 400 mg QD): 0/21 (0%) | Benign prostatic hyperplasia: # Events (Cohort 3 400 mg QD): 0 | Benign prostatic hyperplasia: Affected/At Risk (%) (Cohort 3 400 mg QD): 0/21 (0%) | Blepharitis: # Events (Cohort 3 400 mg QD): 2 | Blepharitis: Affected/At Risk (%) (Cohort 3 400 mg QD): 1/21 (4.76%) | Blister: # Events (Cohort 3 400 mg QD): 1 | Blister: Affected/At Risk (%) (Cohort 3 400 mg QD): 1/21 (4.76%) | Blood alkaline phosphatase increased: # Events (Cohort 3 400 mg QD): 0 | Blood alkaline phosphatase increased: Affected/At Risk (%) (Cohort 3 400 mg QD): 0/21 (0%) | Blood chloride decreased: # Events (Cohort 3 400 mg QD): 0 | Blood chloride decreased: Affected/At Risk (%) (Cohort 3 400 mg QD): 0/21 (0%) | Blood cholesterol increased: # Events (Cohort 3 400 mg QD): 1 | Blood cholesterol increased: Affected/At Risk (%) (Cohort 3 400 mg QD): 1/21 (4.76%) | Blood creatine increased: # Events (Cohort 3 400 mg QD): 0 | Blood creatine increased: Affected/At Risk (%) (Cohort 3 400 mg QD): 0/21 (0%) | Blood creatine phosphokinase increased: # Events (Cohort 3 400 mg QD): 0 | Blood creatine phosphokinase increased: Affected/At Risk (%) (Cohort 3 400 mg QD): 0/21 (0%) | Blood creatinine increased: # Events (Cohort 3 400 mg QD): 2 | Blood creatinine increased: Affected/At Risk (%) (Cohort 3 400 mg QD): 2/21 (9.52%) | Blood loss anaemia: # Events (Cohort 3 400 mg QD): 0 | Blood loss anaemia: Affected/At Risk (%) (Cohort 3 400 mg QD): 0/21 (0%) | Bronchial secretion retention: # Events (Cohort 3 400 mg QD): 0 | Bronchial secretion retention: Affected/At Risk (%) (Cohort 3 400 mg QD): 0/21 (0%) | Bronchitis: # Events (Cohort 3 400 mg QD): 1 | Bronchitis: Affected/At Risk (%) (Cohort 3 400 mg QD): 1/21 (4.76%) | Bronchoscopy: # Events (Cohort 3 400 mg QD): 0 | Bronchoscopy: Affected/At Risk (%) (Cohort 3 400 mg QD): 0/21 (0%) | Catheter site haemorrhage: # Events (Cohort 3 400 mg QD): 0 | Catheter site haemorrhage: Affected/At Risk (%) (Cohort 3 400 mg QD): 0/21 (0%) | Chills: # Events (Cohort 3 400 mg QD): 0 | Chills: Affected/At Risk (%) (Cohort 3 400 mg QD): 0/21 (0%) | Chronic kidney disease: # Events (Cohort 3 400 mg QD): 0 | Chronic kidney disease: Affected/At Risk (%) (Cohort 3 400 mg QD): 0/21 (0%) | Conjunctival haemorrhage: # Events (Cohort 3 400 mg QD): 1 | Conjunctival haemorrhage: Affected/At Risk (%) (Cohort 3 400 mg QD): 1/21 (4.76%) | Conjunctivitis: # Events (Cohort 3 400 mg QD): 3 | Conjunctivitis: Affected/At Risk (%) (Cohort 3 400 mg QD): 3/21 (14.29%) | Constipation: # Events (Cohort 3 400 mg QD): 4 | Constipation: Affected/At Risk (%) (Cohort 3 400 mg QD): 3/21 (14.29%) | Contrast media allergy: # Events (Cohort 3 400 mg QD): 0 | Contrast media allergy: Affected/At Risk (%) (Cohort 3 400 mg QD): 0/21 (0%) | Contusion: # Events (Cohort 3 400 mg QD): 4 | Contusion: Affected/At Risk (%) (Cohort 3 400 mg QD): 3/21 (14.29%) | Corneal abrasion: # Events (Cohort 3 400 mg QD): 0 | Corneal abrasion: Affected/At Risk (%) (Cohort 3 400 mg QD): 0/21 (0%) | Corneal infection: # Events (Cohort 3 400 mg QD): 0 | Corneal infection: Affected/At Risk (%) (Cohort 3 400 mg QD): 0/21 (0%) | Cough: # Events (Cohort 3 400 mg QD): 9 | Cough: Affected/At Risk (%) (Cohort 3 400 mg QD): 7/21 (33.33%) | Death, No. (%) (Cohort 3 400 mg QD): 2 (10) | Decreased appetite: # Events (Cohort 3 400 mg QD): 4 | Decreased appetite: Affected/At Risk (%) (Cohort 3 400 mg QD): 4/21 (19.05%) | Dehydration: # Events (Cohort 3 400 mg QD): 2 | Dehydration: Affected/At Risk (%) (Cohort 3 400 mg QD): 2/21 (9.52%) | Depression: # Events (Cohort 3 400 mg QD): 3 | Depression: Affected/At Risk (%) (Cohort 3 400 mg QD): 3/21 (14.29%) | Diarrhoea: # Events (Cohort 3 400 mg QD): 11 | Diarrhoea: Affected/At Risk (%) (Cohort 3 400 mg QD): 7/21 (33.33%) | Dizziness: # Events (Cohort 3 400 mg QD): 2 | Dizziness: Affected/At Risk (%) (Cohort 3 400 mg QD): 2/21 (9.52%) | Drug eruption: # Events (Cohort 3 400 mg QD): 0 | Drug eruption: Affected/At Risk (%) (Cohort 3 400 mg QD): 0/21 (0%) | Drug-related AE, No. (%) (Cohort 3 400 mg QD): 14 (67) | Drug-related SAE, No. (%) (Cohort 3 400 mg QD): 0 | Dry eye: # Events (Cohort 3 400 mg QD): 2 | Dry eye: Affected/At Risk (%) (Cohort 3 400 mg QD): 2/21 (9.52%) | Dry skin: # Events (Cohort 3 400 mg QD): 1 | Dry skin: Affected/At Risk (%) (Cohort 3 400 mg QD): 1/21 (4.76%) | Dyspepsia: # Events (Cohort 3 400 mg QD): 1 | Dyspepsia: Affected/At Risk (%) (Cohort 3 400 mg QD): 1/21 (4.76%) | Dysphagia: # Events (Cohort 3 400 mg QD): 3 | Dysphagia: Affected/At Risk (%) (Cohort 3 400 mg QD): 2/21 (9.52%) | Dyspnoea exertional: # Events (Cohort 3 400 mg QD): 0 | Dyspnoea exertional: Affected/At Risk (%) (Cohort 3 400 mg QD): 0/21 (0%) | Dyspnoea: # Events (Cohort 3 400 mg QD): 6 | Dyspnoea: Affected/At Risk (%) (Cohort 3 400 mg QD): 6/21 (28.57%) | Embolism: # Events (Cohort 3 400 mg QD): 1 | Embolism: Affected/At Risk (%) (Cohort 3 400 mg QD): 1/21 (4.76%) | Enamel anomaly: # Events (Cohort 3 400 mg QD): 0 | Enamel anomaly: Affected/At Risk (%) (Cohort 3 400 mg QD): 0/21 (0%) | Epidural lipomatosis: # Events (Cohort 3 400 mg QD): 0 | Epidural lipomatosis: Affected/At Risk (%) (Cohort 3 400 mg QD): 0/21 (0%) | Epstein-Barr virus infection: # Events (Cohort 3 400 mg QD): 0 | Epstein-Barr virus infection: Affected/At Risk (%) (Cohort 3 400 mg QD): 0/21 (0%) | Erectile dysfunction: # Events (Cohort 3 400 mg QD): 0 | Erectile dysfunction: Affected/At Risk (%) (Cohort 3 400 mg QD): 0/21 (0%) | Eye irritation: # Events (Cohort 3 400 mg QD): 0 | Eye irritation: Affected/At Risk (%) (Cohort 3 400 mg QD): 0/21 (0%) | Eye pain: # Events (Cohort 3 400 mg QD): 0 | Eye pain: Affected/At Risk (%) (Cohort 3 400 mg QD): 0/21 (0%) | Eye pruritus: # Events (Cohort 3 400 mg QD): 0 | Eye pruritus: Affected/At Risk (%) (Cohort 3 400 mg QD): 0/21 (0%) | Fall: # Events (Cohort 3 400 mg QD): 1 | Fall: Affected/At Risk (%) (Cohort 3 400 mg QD): 1/21 (4.76%) | Fatigue: # Events (Cohort 3 400 mg QD): 14 | Fatigue: Affected/At Risk (%) (Cohort 3 400 mg QD): 10/21 (47.62%) | Flatulence: # Events (Cohort 3 400 mg QD): 1 | Flatulence: Affected/At Risk (%) (Cohort 3 400 mg QD): 1/21 (4.76%) | Flushing: # Events (Cohort 3 400 mg QD): 0 | Flushing: Affected/At Risk (%) (Cohort 3 400 mg QD): 0/21 (0%)
